The results in this text go back to US12150998B2, “Bicyclic peptide ligands specific for P-selectin” (BicycleTx Limited, priority 2021, dated 2024).

In experiment [1] the target is T1, P-Selectin:PSGL1 interaction (Homo sapiens, UniProt P16109).
T1 construct: host or cells: HL-60 cells (ATCC, CCL-240) supply the PSGL-1 partner endogenously
T1 sequence (P16109 42-771 limits assumed): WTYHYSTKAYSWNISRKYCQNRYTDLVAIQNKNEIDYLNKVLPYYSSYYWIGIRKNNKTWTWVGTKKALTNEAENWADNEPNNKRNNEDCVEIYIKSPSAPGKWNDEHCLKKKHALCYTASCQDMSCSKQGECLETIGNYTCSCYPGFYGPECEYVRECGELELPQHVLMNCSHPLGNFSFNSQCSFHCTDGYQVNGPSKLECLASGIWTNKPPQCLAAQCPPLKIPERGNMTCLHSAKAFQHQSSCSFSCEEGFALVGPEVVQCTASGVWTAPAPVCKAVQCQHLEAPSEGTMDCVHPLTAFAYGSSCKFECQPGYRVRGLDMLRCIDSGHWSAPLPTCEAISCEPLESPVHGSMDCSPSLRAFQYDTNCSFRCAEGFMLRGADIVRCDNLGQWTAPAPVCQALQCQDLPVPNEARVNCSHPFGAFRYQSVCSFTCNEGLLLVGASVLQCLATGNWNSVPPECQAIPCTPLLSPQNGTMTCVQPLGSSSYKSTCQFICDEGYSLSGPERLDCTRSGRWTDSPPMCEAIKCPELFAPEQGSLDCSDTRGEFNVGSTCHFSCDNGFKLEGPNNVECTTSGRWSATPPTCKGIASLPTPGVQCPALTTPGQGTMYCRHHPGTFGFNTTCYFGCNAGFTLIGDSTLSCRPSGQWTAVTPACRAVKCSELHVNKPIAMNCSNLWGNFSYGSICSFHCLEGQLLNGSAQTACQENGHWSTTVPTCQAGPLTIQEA
As to the kind of experiment: Receptor ligand inhibition assay (P-Selectin binding to HL-60 cells). The experiment is classed as cell-based. The settings on record: geomean of n=3; for IC50: 5 nM P-Selectin, HL-60 cells, read-out: IC50; for Inhibition at top concentration: 100−% response at top concentration. An outline of the steps:
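Serial dilutions in HEPES buffer, pH 7.4, with 1% BSA and 0.5% DMSO were preincubated 15 min at room temperature with P-selectin (5 nM final). HL-60 cells with far-red WGA and AF488-streptavidin were then added for 2 h, binding read by microplate cytometry; IC50 from four-parameter logistic fit, % inhibition as 100−% response at top concentration.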

Experiment [2] addresses T2, human P-Selectin protein (Homo sapiens, UniProt P16109).
T2 sequence (P16109 42-830): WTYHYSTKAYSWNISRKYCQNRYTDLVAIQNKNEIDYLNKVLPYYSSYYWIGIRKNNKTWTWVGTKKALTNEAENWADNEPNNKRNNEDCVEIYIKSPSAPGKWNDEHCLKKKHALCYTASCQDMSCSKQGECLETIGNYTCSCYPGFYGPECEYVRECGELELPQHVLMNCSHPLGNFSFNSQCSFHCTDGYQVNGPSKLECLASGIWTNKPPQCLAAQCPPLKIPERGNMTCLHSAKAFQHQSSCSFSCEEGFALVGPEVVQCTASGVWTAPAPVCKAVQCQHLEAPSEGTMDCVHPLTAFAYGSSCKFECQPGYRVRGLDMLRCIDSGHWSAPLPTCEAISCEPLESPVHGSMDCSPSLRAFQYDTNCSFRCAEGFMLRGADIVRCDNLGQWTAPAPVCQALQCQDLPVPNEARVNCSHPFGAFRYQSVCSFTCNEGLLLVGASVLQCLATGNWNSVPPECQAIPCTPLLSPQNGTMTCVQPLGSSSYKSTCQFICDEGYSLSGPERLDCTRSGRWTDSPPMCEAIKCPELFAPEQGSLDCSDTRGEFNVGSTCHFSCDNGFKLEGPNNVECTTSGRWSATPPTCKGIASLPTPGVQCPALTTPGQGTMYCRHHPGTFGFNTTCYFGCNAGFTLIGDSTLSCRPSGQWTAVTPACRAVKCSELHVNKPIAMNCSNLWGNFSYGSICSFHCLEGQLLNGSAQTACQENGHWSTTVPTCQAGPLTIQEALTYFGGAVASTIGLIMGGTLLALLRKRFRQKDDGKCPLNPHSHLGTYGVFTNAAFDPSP
Description: SPR binding assay (Biacore). The settings on record: Affinity KD determined by SPR, recombinant biotinylated human P-Selectin, 25° C. An outline of the steps:
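Biotinylated recombinant human P-Selectin was captured on a streptavidin chip (1000-1500 RU), and monomeric peptides were injected in PBS/0.05% Tween 20 with 0.5% DMSO at 25 °C (top 200 nM–50 μM, 2- or 3-fold series). Double-referenced data were fitted to a kinetic model with mass transport to give ka, kd and KD.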
Background: SPR reads the build-up and loss of mass on a sensor chip optically.

Starred links: 1 amine or outer side, 2 acyl side, 3 side chain; linkers in the order of their positions; H or OH if unused. Positions of bridges follow the written chain, without caps; N, C: chain ends. Non-standard residues stand in square brackets, D forms with d. Residues, ends and D or L forms follow the SMILES beside them. Chains are numbered I, II in the order given. No end group written: not given here. X3 = O=C(CCOCCN(CCOCCC(=O)NCCOCCOCCOCCOCCOCCOCCOCCOCCOCCOCCOCCOCCOCCOCCOCCOCCOCCOCCOCCOCCOCCOCCOCCn1cc(CCC(=O)[*:2])nn1)CCOCCC(=O)NCCOCCOCCOCCOCCOCCOCCOCCOCCOCCOCCOCCOCCOCCOCCOCCOCCOCCOCCOCCOCCOCCOCCOCCn1cc(CCC(=O)[*:3])nn1)NCCOCCOCCOCCOCCOCCOCCOCCOCCOCCOCCOCCOCCOCCOCCOCCOCCOCCOCCOCCOCCOCCOCCOCCn1cc(CCC(=O)[*:1])nn1; X2 = O=C(CCCC(=O)NCCOCCOCCOCCOCCOCCOCCOCCOCCOCCOCCOCCOCCOCCOCCOCCOCCOCCOCCOCCOCCOCCOCCOCCn1cc(CCC(=O)[*:2])nn1)NCCOCCOCCOCCOCCOCCOCCOCCOCCOCCOCCOCCOCCOCCOCCOCCOCCOCCOCCOCCOCCOCCOCCOCCn1cc(CCC(=O)[*:1])nn1; X1 = O=C(C[*:1])N1CCN(C(=O)C[*:2])CCN(C(=O)C[*:3])CC1; 1Nal = N[C@@H](Cc1cccc2ccccc12)C(=O)O

Consider `CC(C)C[C@@H]1NC(=O)[C@H](CO)NC(=O)[C@@H]2CCCN2C(=O)[C@H](C(C)C)NC(=O)[C@H](CC(=O)O)NC(=O)[C@@H]2CSCC(=O)N3CCN(CCN(CC3)C(=O)CSC[C@@H](C(=O)N[C@@H](C)C(=O)N[C@@H](CCCCNC(=O)CCc3cn(CCOCCOCCOCCOCCOCCOCCOCCOCCOCCOCCOCCOCCOCCOCCOCCOCCOCCOCCOCCOCCOCCOCCOCCNC(=O)CCCC(=O)NCCOCCOCCOCCOCCOCCOCCOCCOCCOCCOCCOCCOCCOCCOCCOCCOCCOCCOCCOCCOCCOCCOCCOCCn4cc(CCC(=O)NCCCC[C@H](NC(=O)[C@H](C)NC(=O)[C@@H]5CSCC(=O)N6CCN7CCN(CC6)C(=O)CSC[C@H](NC(=O)[C@H](Cc6c[nH]c8ccccc68)NC(=O)[C@H](CC(=O)O)NC(=O)[C@H](C)NC(=O)[C@H](CC(=O)O)NC(=O)[C@@H](NC(=O)[C@H](C)N)CSCC7=O)C(=O)N[C@@H](CC(=O)O)C(=O)N[C@@H](C(C)C)C(=O)N6CCC[C@H]6C(=O)N[C@@H](CO)C(=O)N[C@@H](CC(C)C)C(=O)N6CCC[C@H]6C(=O)N5)C(N)=O)nn4)nn3)C(N)=O)NC(=O)[C@@H]3CCCN3C1=O)C(=O)CSC[C@H](NC(=O)[C@H](C)N)C(=O)N[C@@H](CC(=O)O)C(=O)N[C@@H](C)C(=O)N[C@@H](CC(=O)O)C(=O)N[C@@H](Cc1c[nH]c3ccccc13)C(=O)N2` [BCY12257] (I: H-ACDADWCDVPSLPCAK-NH2 / II: H-ACDADWCDVPSLPCAK-NH2; linker I:2-I:7-I:14, II:2-II:7-II:14 via X1; linker I:16-II:16 via X2), for which, in experiment [1], the IC50 (commonly the concentration that gives 50% inhibition) was more than 78.4 nM and the Inhibition – broadly, how much of the control response was suppressed – at top concentration was 54%. Besides, in experiment [2], the Kd (in general, the equilibrium constant for the complex coming apart) stood at 11.6 nM.

As to “I: ACDAD[1Nal]CDVPSLPCAK-NH2 / II: ACDAD[1Nal]CDVPSLPCAK-NH2 / III: ACDAD[1Nal]CDVPSLPCAK-NH2 (linker I:2-I:7-I:14, II:2-II:7-II:14, III:2-III:7-III:14 via X1; linker I:16-II:16-III:16 via X3) [BCY12260]”, in experiment [1], the IC50 is 9.62 nM and the “Inhibition at top concentration” value was 64%. Also, the Kd in experiment [2] was found to be 0.109 nM.

Turning to “I: ACDADWCDVPSLPCAK-NH2 / II: ACDADWCDVPSLPCAK-NH2 / III: ACDADWCDVPSLPCAK-NH2 (linker I:2-I:7-I:14, II:2-II:7-II:14, III:2-III:7-III:14 via X1; linker I:16-II:16-III:16 via X3) [BCY12259]”, in experiment [1], the IC50 was 14.4 nM and the “Inhibition at top concentration” value worked out at 61%. In experiment [2], the Kd came out at 0.233 nM.
